Test results taken from article PMC8413292, “Small-molecule polymerase inhibitor protects non-human primates from measles and reduces shedding” (Nature Communications, 2021).
Where “and” joins values, the source holds several entries; their conditions need not be identical. Identical values can stand only once.

Columns and labels:
[1] = Body weight of squirrel monkeys during the efficacy study; format: in vivo, squirrel monkeys (Saimiri sciureus); settings: all animals throughout the study
Procedure: All animal experiments were carried out in compliance with the regulations of German animal protection laws and authorized by the Regierungspräsidium Darmstadt, Germany (Dezernat V54 – Veterinärwesen und Verbraucherschutz, Hilpertstrasse 31, 64295 Darmstadt). Adult male and female squirrel monkeys (Saimiri sciureus) were obtained from BioPRIM, 31450 Baziege, or CNRS 0846 Primatologie, 13790 Rousset, France. Each experimental group was housed in a separate room, and animals of the same sex were caged together within the respective groups. For the single-dose pharmacokinetic experiment, animals were anesthetized, and the drug was given through a stomach tube at a concentration of 50 mg/kg bodyweight. Blood samples were collected after 15, 30, and 60 min, and 2, 3, 6, and 24 h. For efficacy assessment, groups of 6 animals were left untreated or treated with 50 mg/kg of ERDRP-0519 twice daily for two weeks, starting either 12 h before or 3 or 7 days after intranasal infection with 10^6 TCID50 of MV/FrankfurtMain.DEU/17.11. Clinical signs, rectal temperature, and weight were recorded daily, and throat swabs and blood samples were collected before infection and twice weekly thereafter. On day 21 post-infection, the animals were euthanized, necropsied, and samples were collected for histological analysis.

[2] = system: MV/FrankfurtMain.DEU/17.11 (genotype D8); assay: PBMC-associated viremia titers (limited dilution, TCID50/10^6 PBMCs); format: in vivo, squirrel monkeys (Saimiri sciureus); settings: for Viral titers: individual animals
Procedure: White blood cell counts, viral load quantification in PBMCs, and quantification of neutralizing antibody titers were performed as follows: for white blood cell counts, blood was diluted 1:100 in 3% acetic acid and cells were counted using a Neubauer chamber. For viral load quantification in PBMCs, blood was centrifuged at 3000 rpm for 15 min and serum was frozen at −20 °C until further use. Red blood cell lysis was performed and the remaining PBMCs were counted using a Neubauer chamber. Viral titers in PBMCs were quantified in quadruplicates using limited dilution method and calculated as TCID50/10^6 PBMCs. Neutralizing antibody titers were quantified by incubating MeV with 2-fold serial dilutions of the respective serum for 20 min at room temperature in quadruplicates. Vero/hSLAM cells were added and incubated for 3 days at 37 °C. Neutralizing antibody titers are expressed as the reciprocal of the highest serum dilution showing no signs of infection. For virus titration from throat swabs, swabs were placed in 150 μl DMEM with 3% penicillin/streptomycin and the titer was quantified by limited dilution method.

## Cn1nc(C(F)(F)F)cc1C(=O)Nc1ccc(S(=O)(=O)N2CCCC[C@H]2CCN2CCOCC2)cc1 [ERDRP-0519]
[1]
  Body weight changes: negligible
[2]; day 3 therapeutic administration
  effect on PBMC-associated virus replication: effectively suppressed virus replication
[2]; prophylactic group, day 3
  Viral titers: 1.745 log10(TCID50/106 PBMCs)
[2]; prophylactic group, day 7
  Viral titers: 1.509 log10(TCID50/106 PBMCs) and 0 log10(TCID50/106 PBMCs)
[2]; prophylactic group, day 10
  Viral titers: 1.807 log10(TCID50/106 PBMCs)
[2]; prophylactic group, day 17
  Viral titers: 0.7747 log10(TCID50/106 PBMCs)
[2]; prophylactic group, day 21
  Viral titers: 2.352 log10(TCID50/106 PBMCs)
[2]; prophylactic treatment
  decrease of viremia titers on average compared to untreated animals: up to 250 fold
[2]; prophylactic, Row 1 (1st of 7 time points)
  PBMC Titers, group mean (Mean 2): 0
[2]; prophylactic, Row 2 (2nd of 7 time points)
  PBMC Titers, group mean (Mean 2): 0.2908
[2]; prophylactic, Row 3 (3rd of 7 time points)
  PBMC Titers, group mean (Mean 2): 0.2514
[2]; prophylactic, Row 4 (4th of 7 time points)
  PBMC Titers, group mean (Mean 2): 0.3012
[2]; prophylactic, Row 5 (5th of 7 time points)
  PBMC Titers, group mean (Mean 2): 0
[2]; prophylactic, Row 6 (6th of 7 time points)
  PBMC Titers, group mean (Mean 2): 0.1283
[2]; prophylactic, Row 7 (7th of 7 time points)
  PBMC Titers, group mean (Mean 2): 0.3917
[2]; therapeutic (d3) group, day 3
  Viral titers: 1.097 log10(TCID50/106 PBMCs) and 1.77 log10(TCID50/106 PBMCs)
[2]; therapeutic (d3) group, day 7
  Viral titers: 0.7905 log10(TCID50/106 PBMCs) and 1.004 log10(TCID50/106 PBMCs) and 2.281 log10(TCID50/106 PBMCs) and 0 log10(TCID50/106 PBMCs)
[2]; therapeutic (d3) group, day 10
  Viral titers: 1.35 log10(TCID50/106 PBMCs) and 0.8861 log10(TCID50/106 PBMCs) and 2.045 log10(TCID50/106 PBMCs)
[2]; therapeutic (d3) group, day 14
  Viral titers: 0.7375 log10(TCID50/106 PBMCs)
[2]; therapeutic (d3), Row 1 (1st of 7 time points)
  PBMC Titers, group mean (Mean 2): 0
[2]; therapeutic (d3), Row 2 (2nd of 7 time points)
  PBMC Titers, group mean (Mean 2): 0.4783
[2]; therapeutic (d3), Row 3 (3rd of 7 time points)
  PBMC Titers, group mean (Mean 2): 0.6785
[2]; therapeutic (d3), Row 4 (4th of 7 time points)
  PBMC Titers, group mean (Mean 2): 0.7141
[2]; therapeutic (d3), Row 5 (5th of 7 time points)
  PBMC Titers, group mean (Mean 2): 0.1233
[2]; therapeutic (d3), Row 6 (6th of 7 time points)
  PBMC Titers, group mean (Mean 2): 0
[2]; therapeutic (d3), Row 7 (7th of 7 time points)
  PBMC Titers, group mean (Mean 2): 0
[2]; therapeutic (d7) group, day 3
  Viral titers: 0.6162 log10(TCID50/106 PBMCs) and 0.7122 log10(TCID50/106 PBMCs) and 0.8794 log10(TCID50/106 PBMCs) and 0.6642 log10(TCID50/106 PBMCs) and 1.712 log10(TCID50/106 PBMCs)
[2]; therapeutic (d7) group, day 7
  Viral titers: 2.108 log10(TCID50/106 PBMCs) (2×) and 1.9431 log10(TCID50/106 PBMCs) and 1.854 log10(TCID50/106 PBMCs) and 1.9914 log10(TCID50/106 PBMCs) and 1.699 log10(TCID50/106 PBMCs)
[2]; therapeutic (d7) group, day 10
  Viral titers: 2.513 log10(TCID50/106 PBMCs) and 2.092 log10(TCID50/106 PBMCs) and 2.1549 log10(TCID50/106 PBMCs) and 2.936 log10(TCID50/106 PBMCs) and 2.626 log10(TCID50/106 PBMCs) and 2.438 log10(TCID50/106 PBMCs)
[2]; therapeutic (d7) group, day 14
  Viral titers: 0.7959 log10(TCID50/106 PBMCs) and 0.3979 log10(TCID50/106 PBMCs) and 1.735 log10(TCID50/106 PBMCs)
[2]; therapeutic (d7) group, day 17
  Viral titers: 1.174 log10(TCID50/106 PBMCs) and 0.6271 log10(TCID50/106 PBMCs)
[2]; therapeutic (d7), Row 1 (1st of 7 time points)
  PBMC Titers, group mean (Mean 2): 0
[2]; therapeutic (d7), Row 2 (2nd of 7 time points)
  PBMC Titers, group mean (Mean 2): 0.7636
[2]; therapeutic (d7), Row 3 (3rd of 7 time points)
  PBMC Titers, group mean (Mean 2): 1.95
[2]; therapeutic (d7), Row 4 (4th of 7 time points)
  PBMC Titers, group mean (Mean 2): 2.46
[2]; therapeutic (d7), Row 5 (5th of 7 time points)
  PBMC Titers, group mean (Mean 2): 0.49
[2]; therapeutic (d7), Row 6 (6th of 7 time points)
  PBMC Titers, group mean (Mean 2): 0.3
[2]; therapeutic (d7), Row 7 (7th of 7 time points)
  PBMC Titers, group mean (Mean 2): 0
[2]; treatment initiated at day 7 post-infection, maximum on day 10
  effect on height of maximum virus load: no significant effect on the height of maximum virus load
[2]; untreated vs. prophylactic, Row 1 (1st of 7 time points)
  PBMC Titers, Mean Diff, untreated vs. treated: 0
[2]; untreated vs. prophylactic, Row 2 (2nd of 7 time points)
  PBMC Titers, Mean Diff, untreated vs. treated: 0.1201
[2]; untreated vs. prophylactic, Row 3 (3rd of 7 time points)
  PBMC Titers, Mean Diff, untreated vs. treated: 2.622
[2]; untreated vs. prophylactic, Row 4 (4th of 7 time points)
  PBMC Titers, Mean Diff, untreated vs. treated: 1.541
[2]; untreated vs. prophylactic, Row 5 (5th of 7 time points)
  PBMC Titers, Mean Diff, untreated vs. treated: 0.3677
[2]; untreated vs. prophylactic, Row 6 (6th of 7 time points)
  PBMC Titers, Mean Diff, untreated vs. treated: 0.1017
[2]; untreated vs. prophylactic, Row 7 (7th of 7 time points)
  PBMC Titers, Mean Diff, untreated vs. treated: -0.3917
[2]; untreated vs. therapeutic (d3), Row 1 (1st of 7 time points)
  PBMC Titers, Mean Diff, untreated vs. treated: 0
[2]; untreated vs. therapeutic (d3), Row 2 (2nd of 7 time points)
  PBMC Titers, Mean Diff, untreated vs. treated: -0.06733
[2]; untreated vs. therapeutic (d3), Row 3 (3rd of 7 time points)
  PBMC Titers, Mean Diff, untreated vs. treated: 2.195
[2]; untreated vs. therapeutic (d3), Row 4 (4th of 7 time points)
  PBMC Titers, Mean Diff, untreated vs. treated: 1.128
[2]; untreated vs. therapeutic (d3), Row 5 (5th of 7 time points)
  PBMC Titers, Mean Diff, untreated vs. treated: 0.2444
[2]; untreated vs. therapeutic (d3), Row 6 (6th of 7 time points)
  PBMC Titers, Mean Diff, untreated vs. treated: 0.23
[2]; untreated vs. therapeutic (d3), Row 7 (7th of 7 time points)
  PBMC Titers, Mean Diff, untreated vs. treated: 0
[2]; untreated vs. therapeutic (d7), Row 1 (1st of 7 time points)
  PBMC Titers, Mean Diff, untreated vs. treated: 0
[2]; untreated vs. therapeutic (d7), Row 2 (2nd of 7 time points)
  PBMC Titers, Mean Diff, untreated vs. treated: -0.3527
[2]; untreated vs. therapeutic (d7), Row 3 (3rd of 7 time points)
  PBMC Titers, Mean Diff, untreated vs. treated: 0.9232
[2]; untreated vs. therapeutic (d7), Row 4 (4th of 7 time points)
  PBMC Titers, Mean Diff, untreated vs. treated: -0.6175
[2]; untreated vs. therapeutic (d7), Row 5 (5th of 7 time points)
  PBMC Titers, Mean Diff, untreated vs. treated: -0.1223
[2]; untreated vs. therapeutic (d7), Row 6 (6th of 7 time points)
  PBMC Titers, Mean Diff, untreated vs. treated: -0.06996
[2]; untreated vs. therapeutic (d7), Row 7 (7th of 7 time points)
  PBMC Titers, Mean Diff, untreated vs. treated: 0
